Drawing on ChEMBL document CHEMBL1133029, “Synthesis of hybrid distamycin-cysteine labeled with 99mTc: a model for a novel class of cancer imaging agents” (Bioorg Med Chem Lett, 2000), this text covers Concentration and IC50 for two compounds.

For one test, the system named is K562. As to the kind of experiment: Concentration required for inhibitory activity was evaluated against human leukemic K562 cell line. The class given is functional, cell-based.
In another test the test system is L1210. As to the kind of experiment: Inhibitory activity against L1210 murine leukemic cell line after 48 hr of exposure to compound. The class given is functional, cell-based. Particulars: Mus musculus, L1210, 48 h.

The compound `Cn1cc(NC(=O)c2cc(NC(=O)c3cc(NC=O)cn3C)cn2C)cc1C(=O)NCCC(=N)N` gave a Concentration in the test with K562 of 12 µM. In the test on L1210, the IC50 – broadly, the concentration needed to halve the response being measured – turned out to be 9.64 µM.

`Cn1cc(NC(=O)c2cc(NC(=O)c3cc(NC(=O)[C@@H](N)CS)cn3C)cn2C)cc1C(=O)NCCC(=N)N`: the Concentration in the test on K562 is 10 µM. This compound showed an IC50 in the test on L1210 of 7.96 µM.
